Experimental data as given in patent US10473647B1, “Peptides for use in treatment and diagnosis of type 1 diabetes” (ImmusanT, Inc., priority 2014, dated 2019).
No end group written: not given here.

How the values were obtained:
Assay type in all cases: cell-based, human
undepleted whole blood [1] = experiment: Whole blood cytokine assay, IFNg, undepleted blood, number of subjects with >=1.25 fold over medium (Example 2); conditions: 24 h, peptides 20 ug/mL, pools 4 ug/mL, NEX-01/Nexgen POOL 25 uM, CEFT 1 ug/mL
Description: (§1) The depleted blood as well as the remaining undepleted whole blood was then utilized in whole blood cytokine release assays. T-cell cytokine responses were assessed for reactivity to pools of 17mer peptides encompassing all unique 12mer amino-acid sequences derived from pancreatic islet antigens commonly recognized by autoantibodies in T1D: insulin, glutamic decarboxylase-65 (GAD65), and insulinoma-associated antigen (IA)-2 as provided in Table 13A and Table 13B.
(§2) Fresh heparinized blood was incubated with peptide. Concentrations of individual islet-autoantigen peptides were 20 μg/mL and constituent peptides in islet-autoantigen pools were 4 ug/mL. Control MHC class II peptide mix CEFT was used at 1 μg/mL. Gliadin peptide pools were added to whole blood assays at 25 μM. Whole blood assays were incubated for 24 h at 37° C. in 5% CO2. Plasma was separated from blood after centrifugation at 500×g for 10 minutes at room temperature and then transferred to a corresponding well in a “mirror image” sterile 96-well plate. and frozen at −80° C. until use. Multiplex bead-based cytokine assays (MAGPix) were performed according to manufacturer's instructions on thawed plasma. Concentrations of interferon (IFN)-γ-induced protein-10 (IP-10), interleukin (IL)-2 and IFN-γ. Table 14 is a summary of the results for the whole blood cytokine assays which expresses the data in the number of subjects that are positive for ≥1.25 fold production of cytokine over cells incubated with medium only (background).

undepleted whole blood [2] = experiment: Whole blood cytokine assay, IP-10, undepleted blood, number of subjects with >=1.25 fold over medium (Example 2); conditions: 24 h, peptides 20 ug/mL, pools 4 ug/mL, NEX-01/Nexgen POOL 25 uM, CEFT 1 ug/mL
Description: as §1, §2

[3] = test system: CD4+ T cell depleted blood; experiment: Whole blood cytokine assay, IFNg, CD4+ T cell depleted blood (Example 2); conditions: T1D Subjects (n of 6), 24 h, peptides 20 ug/mL, pools 4 ug/mL, NEX-01/Nexgen POOL 25 uM, CEFT 1 ug/mL
Description: (§3) Depletion of human CD4+ and CD8+ T cells directly from whole blood, using CD4 and CD8 Dynabeads respectively (Dynabeads Human CD4, Life Technologies, #11145D; Dynabeads Human CD8, Life Technologies, #11145D), was done according to the manufacturer's protocol. Briefly, the Dynabeads were resuspended and the desired volume was transferred to a 15 Ml tube. The calculation of the volume of beads added to whole blood was 2×10^6 CD4 beads (25 μL) and 4×10^6 CD8 beads (50 μL) per Ml of whole blood. The beads were first washed with 3 Ml PBS, vortexed and placed on the magnet for 1 minute. Supernatant was discarded and beads were removed from the magnet. Whole blood was then added to the beads at the volume calculated for the concentration of beads in the tubes. The tubes containing whole blood and Dynabeads were then incubated 45 minutes at 4° C. on a continuous rocker.
(§4) Tubes were then placed into the magnet for 2 minutes. The whole blood supernatant was then transferred to a new tube for use in 24-hour Whole Blood Assay or for Flow Cytometric Analysis. Magnetic beads were discarded.
as §1, §2

[4] = test system: CD8+ T cell depleted blood; experiment: Whole blood cytokine assay, IFNg, CD8+ T cell depleted blood (Example 2); conditions: T1D Subjects (n of 6), 24 h, peptides 20 ug/mL, pools 4 ug/mL, NEX-01/Nexgen POOL 25 uM, CEFT 1 ug/mL
Description: as §3, §4, §1, §2

[5] = test system: CD8+ T cell depleted blood; experiment: Whole blood cytokine assay, IL-2, CD8+ T cell depleted blood (Example 2); conditions: T1D Subjects (n of 6), 24 h, peptides 20 ug/mL, pools 4 ug/mL, NEX-01/Nexgen POOL 25 uM, CEFT 1 ug/mL
Description: as §3, §4, §1, §2

undepleted whole blood [6] = experiment: Whole blood cytokine assay, IL-2, undepleted blood, number of subjects with >=1.25 fold over medium (Example 2); conditions: 24 h, peptides 20 ug/mL, pools 4 ug/mL, NEX-01/Nexgen POOL 25 uM, CEFT 1 ug/mL
Description: as §1, §2

[7] = test system: CD8+ T cell depleted blood; experiment: Whole blood cytokine assay, IP-10, CD8+ T cell depleted blood (Example 2); conditions: T1D Subjects (n of 6), 24 h, peptides 20 ug/mL, pools 4 ug/mL, NEX-01/Nexgen POOL 25 uM, CEFT 1 ug/mL
Description: as §3, §4, §1, §2

[8] = test system: CD4+ T cell depleted blood; experiment: Whole blood cytokine assay, IP-10, CD4+ T cell depleted blood (Example 2); conditions: T1D Subjects (n of 6), 24 h, peptides 20 ug/mL, pools 4 ug/mL, NEX-01/Nexgen POOL 25 uM, CEFT 1 ug/mL
Description: as §3, §4, §1, §2

[9] = Healthy Subjects (n of 4), whole blood
[10] = T1D Subjects (n of 6), Undepleted WB

Substance	Fold Change IFNg, number of subjects positive for ≥1.25 fold production of cytokine over medium only (undepleted whole blood [1]; [9])	Fold Change IP-10, number of subjects positive for ≥1.25 fold production of cytokine over medium only (undepleted whole blood [2]; [9])	Fold Change IFNg, number of subjects positive for ≥1.25 fold production of cytokine over medium only [3]	Fold Change IFNg, number of subjects positive for ≥1.25 fold production of cytokine over medium only [4]	Fold Change IL-2, number of subjects positive for ≥1.25 fold production of cytokine over medium only [5]	Fold Change IL-2, number of subjects positive for ≥1.25 fold production of cytokine over medium only (undepleted whole blood [6]; [10])	Fold Change IP-10, number of subjects positive for ≥1.25 fold production of cytokine over medium only (undepleted whole blood [2]; [10])	Fold Change IP-10, number of subjects positive for ≥1.25 fold production of cytokine over medium only [7]	Fold Change IP-10, number of subjects positive for ≥1.25 fold production of cytokine over medium only [8]	Fold Change IFNg, number of subjects positive for ≥1.25 fold production of cytokine over medium only (undepleted whole blood [1]; [10])	Fold Change IL-2, number of subjects positive for ≥1.25 fold production of cytokine over medium only (undepleted whole blood [6]; [9])
20150-19 (EDLQVGQVELGGGPGAG-NH2) [Peptide 20150-19]	1/4	1/4	2/6	3/6	1/6						
20150-11-W1 (NQHLCGSHLVEALYLVC)		2/4	1/6	1/6		1/6	2/6	2/6			
20150-05-W1: peptide tested in Example 2 whole blood cytokine assays (Tables 13A/13B, 14) (REAEDLQVGQVELGGGP)		3/4	1/6	1/6	1/6		4/6	5/6	3/6		
L2P1, 051 (NMFTYEIAPVFVLLEYV)		3/4	1/6	2/6	2/6	1/6	4/6	5/6	3/6		
L3P2, 076 (GRTGTYILIDMVLNRMA)	1/4	3/4		5/6	6/6	5/6	6/6	5/6	3/6	4/6	1/4
L2P1, 049 (FNQLSTGLDMVGLAADW)			1/6					2/6	2/6		
